# According to patent US20220281931A1, “CHEMICALLY INDUCIBLE POLYPEPTIDE POLYMERIZATION” (Dana-Farber Cancer Institute, Inc., priority 2019, published 2022):
# How the values were obtained:
# [1] = molecular target: T1, BCL6^5-360 (Homo sapiens, UniProt P41182); assay: Size-exclusion chromatography of purified recombinant BCL6; type: biochemical; settings: purified BCL6^5-360, 2 μM compound
# T1 construct: size-exclusion chromatogram of purified BCL6^5-360 in the presence of DMSO; made in house; host or cells: Trichoplusia ni High Five insect cells, baculovirus
# From the text: The human wild-type and mutant versions of BCL6 (residue 5-129 or 5-360) and SIAH1 variants (residue 90-282 (substrate binding domain, SBD) or full length), were cloned in pAC-derived vectors. Baculovirus for protein expression (Invitrogen) was generated by transfection into Spodoptera frugiperda (Sf9) cells at a density of 0.9×10^6 cells/mL grown in ESF 921 media (Expression Systems), followed by three rounds of infection in Sf9 cells to increase viral titer. Recombinant proteins were expressed and purified as N-terminal His6 C-terminal Spy (wild-type and mutant versions of BCL6^5-360), N-terminal Strep II-Avi (BCL6^5-129, BCL6^5-360, and SIAH1^SBD), and N-terminal Flag (SIAH1^FL) fusions in Trichoplusiani High Five insect cells using the baculovirus expression system (Invitrogen).
# [2] = tested on: lymphoma cells; settings: cited from earlier work
# [3] = molecular target: T2, endogenous BCL6 (Homo sapiens, UniProt P41182); assay: Immunofluorescence of endogenous BCL6 in SuDHL4 cells; type: cell-based; settings: 1 μM BI-3802, 1 hour
# T2 construct: endogenous in cells; host or cells: SuDHL4 / SuDHL4Cas9 cells
# Method: (§1) In vitro ubiquitination for identification of compatible E2 conjugating enzymes was performed by following the manufacturer's instructions (K-982, Boston Biochem), using Strep II-Avi-BCL6^5-360 and Flag-SIAH1^FL. Time-course in vitro ubiquitination was performed by mixing the substrate (BCL6, 2 μM), E3 (SIAH, 0.5 μM), E1 (UBA1, Boston Biochem, 0.2 μM, E2 (UBE2D1, Boston Biochem, 0.5 μM), and ubiquitin (Boston Biochem, 50 μM), with a reaction buffer (B-71, Boston Biochem) containing BI-3802 or DMSO (normalized to 1% DMSO) in 15 μL volume each. Reactions were initiated by adding 5 μL of Mg-ATP solution (B-20, Boston Biochem), incubated for up to 60 min at 37° C., and analyzed by western blot using Strep tag II Antibody HRP conjugate (71591-3, Sigma) at 1:4,000. 0.8×10^6 cells/mL SuDHL4 cells were treated with DMSO or 0.5 μM E1 Inhibitor (3 h)+1 μM BI-3802 (I h) and 200 μL of the cell suspension was immobilized on a slide using the Cytospin™ 4 Cytocentrifuge (CytoSpin 4, A78300003; 6000 rpm, 6 min). Medium was aspirated and cells were fixed with 4% formaldehyde diluted in warm PBS for 15 min at room temperature. Slides were washed three times for 5 min with PBS, blocked and permeabilized with blocking solution (5% Normal Goat Serum (Cell Signaling), 0.3% Triton X-100 in PBS) for 60 min and stained with anti-BCL6 antibody in blocking solution overnight at 4° C. […]
# [4] = molecular target: T3, Nano-LuciferaseSIAH1^C44S and HaloTagBCL6 (Homo sapiens, UniProt P41182); assay: NanoBRET BCL6-SIAH1 interaction in HEK293T cells; type: cell-based; settings: 1 μM, 2 hours
# T3 construct: expressed in transfected cells; host or cells: HEK293T cells, transient transfection
# Method: Bioluminescence resonance energy transfer (BRET) experiments were performed using a NanoBRET PPI starter kit (Promega N1821) according to the manufacturer's instructions and as previously described (Sperling, A. S. et al. Patterns of substrate affinity, competition, and degradation kinetics underlie biological activity of thalidomide analogs. Blood 134, 160-170, doi:10.1182/blood.2019000789 (2019)).
# [5] = molecular target: T4, BCL6^5-360 - SIAH1^SBD (Homo sapiens, UniProt P41182); assay: BCL6-SIAH1 TR-FRET; type: biochemical; settings: preassembled 0.2 μM BodipyBCL6^5-360 and 0.2 μM BiotinSIAH1^SBD, in vitro; read-out: EC50 for increase of the BCL6-SIAH1 interaction
# T4 construct: 200 nM BodipyFL-labeled BCL6^5-360 variants; His6 (N); Spy (C); made in house; host or cells: Trichoplusia ni High Five insect cells, baculovirus
# Method: After dispensing the assay mixture (15 μL volume), increasing concentrations of compounds were dispensed in a 384-well microplate (Corning, 4514) using a D300e Digital Dispenser (HP) normalized to 1% DMSO. After excitation of terbium fluorescence at 337 nm, emission at 490 nm (terbium) and 520 nm (BodipyFL) were recorded with a 70 us delay over 600 μs to reduce background fluorescence, and the reaction was followed over 60 cycles of each data point using a PHERAstar FS microplate reader (BMG Labtech). The TR-FRET signal of each data point was extracted by calculating the 520/490 nm ratio. The half-maximal effective concentration (EC50) values were estimated using dose-response analysis standard four parameter log-logistic curves, fitted to the experimental data using […] package. […] After dispensing the assay mixture, increasing concentration of BodipyFL-BCL6^5-360 was added to the SIAH1 mixture in a […] (7.5 μL each, total 15 μL assay volume). The 520/490 nm ratios were measured in as described above and plotted to calculate the KD^APP values using dose-response analysis standard four parameter log-logistic curves using […] package.
# [6] = molecular target: T5, BCL6-eGFP fusion construct (Homo sapiens, UniProt P41182); assay: Live cell imaging of BCL6-eGFP foci in HEK293T cells; type: cell-based; settings: HEK293T cells, full length BCL6 and eGFPBCL6^1-275, 1 μM
# T5 construct: expressed in transfected cells; host or cells: HEK293TCas9 cells, lentiviral transduction (Cilantro2 vector)
# Method: 1×10^3 HEK293T cells per cm^2 were seeded in a μ-Slide 8 Well chamber (ibidi) and cultured for 18-24 h under standard growth conditions. Cell culture medium was exchanged to CO2 independent media (Gibco) and imaged with the DeltaVision Ultra High-Resolution Microscope (GE Healthcare, 100×lens, oil refraction index=1.520). The following acquisition parameters were used: Image size […], binning 1×1, GFP exposure time 0.08 sec. and the Neutral Density (% T) filter 32%. To capture foci within all cell volume, around 26μm per cell was imaged every 0.4-0.5 μm. Images were deconvolved (10 cycles, conservative conditions) and projected using maximal intensity by softWoRx® 7.0.0. Images for movies were taken every 10 minutes and combined to a movie by QuickTime.
# [7] = molecular target: T6, StrepBCL6^5-360 / full length SIAH1 (Homo sapiens, UniProt P41182); assay: In vitro ubiquitination of BCL6 by SIAH1; type: biochemical; settings: recombinant polypeptides, 1 μM BI-3802 vs DMSO
# T6 construct: using Strep II-Avi-BCL6^5-360 and Flag-SIAH1^FL; made in house; host or cells: Trichoplusia ni High Five insect cells, baculovirus
# Method: as §1
structure (smiles),measurement,setting,value
"CNC(=O)COc1cc2cc(Nc3nc(N4C[C@H](C)C[C@H](C)C4)ncc3Cl)ccc2n(C)c1=O [BI-3802, 2-((6-((5-chloro-2-((3S,5R)-3,5-dimethylpiperidin-1-yl)pyrimidin-4-yl)amino)-1-methyl-2-oxo-1,2-dihydroquinolin-3-yl)oxy)-N-methylacetamide]",higher molecular weight species of recombinant BCL6,[1],led to higher molecular weight species of BCL6
same,activity against lymphoma cells compared to BI-3812,[2],markedly increased activity against lymphoma cells
same,endogenous BCL6 foci formation,[3],endogenous BCL6 also formed foci
same,effect on the BCL6-SIAH1 interaction in cells (mBRET signal),[4],increased the interaction between BCL6 and SIAH1
same,EC50,[5],64 nM
same,eGFP-containing BCL6 foci formation,[6],appearance of distinct eGFP-containing foci was observed within minutes
same,rate and magnitude of BCL6 ubiquitination by SIAH1,[7],accelerated
